We go through 20 compounds from US20060252823A1, “Isocoumarin-based inhibitors of urokinase-type plasminogen activator” (priority 2005, published 2006).

Structures can show the parent of a compound that is named as a salt.

In one data set the target is T1, Human urokinase (Homo sapiens, UniProt P00749).
T1 construct: purchased Sigma/Aldrich
The experiment in a line: Kinetics of human urokinase inhibition with Spectrozyme UK substrate. The following applies: for Ki: human uPA, 0.1M Tris pH 8.8, 25° C., initial rate data; for fold improvement of Ki over 4d: compared to unsubstituted compound 4d; for binding to uPA compared to unsubstituted counterparts: qualitative comparison of dissociation constants (Table 1). The format is biochemical. Here is the method:
Human urokinase (Sigma/Aldrich, St. Louis, Mo.) and Spectrozyme UK (American Diagnostica, Stamford, Conn.) were used for the kinetic studies. Enzyme activity was routinely measured in 1 ml volumes of 0.1M Tris, pH 8.8, Spectrozyme UK (10 μM to 150 μM) and 0.64 μg (3,770 units/mg protein) human urokinase. Reactions were monitored at 405 nm, 25° C., with a Perkin/Elmer Lambda S2 UV/vis spectrophotometer. Michaelis constants and Ki values were determined from initial rate data, measured at 8 to 10 substrate concentrations, by non-linear regression analysis with SigmaPlot's Enzyme Kinetics Module™ (Chicago, Ill., USA).

On to `Nc1ccc2c(Cl)c(OCCBr)oc(=O)c2c1` [Compound 6a, 7-Amino-3-(2-bromoethoxy)4-chloroisocoumarin], for which the melting point is 134 to 136 °C.

In the case of `Br.N=C(S)NCCOc1oc(=O)c2cc(NC(=O)c3ccccc3)ccc2c1Cl` [Compound 9a, 7-Benzamido-4-chloro-3-(2-isothioureidoethoxy)isocoumarin hydrobromide], the melting point lay within 173 to 175 °C. In turn, `O=c1oc(OCCCBr)c(Cl)c2ccccc12` [Compound 4d, 3-(3-Bromopropoxy)-4-chloroisocoumarin] registered a melting point of 95 to 97 °C. In addition, on Human urokinase, the “type of inhibition of uPA” value is “simple competitive inhibition with no evidence of rapid inactivation” and the Ki came to 9 µM. As to `Br.NC(S)=NCCCOc1oc(=O)c2ccccc2c1Cl` [Compound 5d, 4-Chloro-3-(3-isothioureidopropoxy)isocoumarin hydrobromide], the melting point is 159 to 163 °C.

`O=C(Nc1ccc2c(Cl)c(OCCCBr)oc(=O)c2c1)c1ccccc1` [Compound 8b, 7-Benzamido-3-(3-bromopropoxy)-4-chloroisocoumarin] had a melting point of 193 to 194 °C. At Human urokinase, the “fold improvement of Ki over 4d” value came to 300 fold, the Ki stood at 0.034 µM and the “binding to uPA compared to unsubstituted counterparts” value is given as “markedly improved binding”. In addition, the dissociation constant entry at Human urokinase (in words) is “low nanomolar range”.

Compound `O=c1oc(OCCBr)c(Cl)c2ccc([N+](=O)[O-])cc12` [Compound 4a, 3-(2-Bromoethoxy)-4-chloro-7-nitroisocoumarin] had a melting point of 126 to 128 °C. Further, the “binding to uPA compared to unsubstituted counterparts” value at Human urokinase was “improved binding”. `O=c1oc(OCCBr)c(Cl)c2ccccc12` [Compound 4c, 3-(2-Bromoethoxy)-4-chloroisocoumarin] came in with a melting point of 81 to 82 °C. `O=c1oc(OCCCBr)c(Cl)c2ccc([N+](=O)[O-])cc12` [Compound 4b, 3-(3-Bromopropoxy)-4-chloro-7-nitroisocoumarin]: the melting point lay in the range of 131 to 134 °C. At Human urokinase, the “fold improvement of Ki over 4d” value is listed as 8 fold, the Ki was found to be 1.2 µM and the “binding to uPA compared to unsubstituted counterparts” value was “improved binding”.

As for `O=c1oc(OCCCCBr)c(Cl)c2ccccc12` [Compound 4e, 3-(4-Bromobutoxy)4-chloroisocoumarin], the melting point lay in the range of 75 to 77 °C. With `N=C(N)SCCOc1oc(=O)c2ccccc2c1Cl` [Compound 5c, 4-Chloro-3-(2-isothioureidoethoxy)isocoumarin hydrobromide], on Human urokinase, the Ki turned out to be 0.027 µM.

With `O=C(c1c(OCCCBr)oc(=O)c2ccccc12)C(F)(F)F` [Compound 10c, 3-(3-Bromopropoxy)-4-trifluoroacetylisocoumarin], on Human urokinase, the “binding to uPA compared to unsubstituted counterparts” value was “did not show improved binding”. As for `Nc1ccc2cc(OCCBr)oc(=O)c2c1` [Compound 11, 7-Amino-3-(2-bromoethoxy)isocoumarin], the melting point was > 280 °C. Same read-out and setting: to `Nc1ccc2c(Cl)c(OCCCBr)oc(=O)c2c1` [Compound 6b, 7-Amino-3-(3-bromopropoxy)-4-chloroisocoumarin] belongs 106 to 107 °C; to `Br.NC(S)=NCCCOc1cc2ccc(N)cc2c(=O)o1` [Compound 7b, 7-Amino-3-(3-isothioureidopropoxy)isocoumarin hydrobromide], 173 °C; to `Br.N=C(S)NCCOc1oc(=O)c2ccccc2c1Cl` [Compound 5c, 4-Chloro-3-(2-isothioureidoethoxy)isocoumarin hydrobromide], 168 to 170 °C. Take `O=c1oc(OCCBr)cc2ccc([N+](=O)[O-])cc12` [Compound 10a, 3-(2-Bromoethoxy)-7-nitroisocoumarin]: the melting point is 95 to 97 °C. Still for that read-out and setting: to `Br.N=C(S)NCCCCOc1oc(=O)c2ccccc2c1Cl` [Compound 5e, 4-Chloro-3-(4-isothioureidobutoxy)isocoumarin hydrobromide] belongs 159 to 161 °C. The compound `Br.NC(S)=NCCCOc1oc(=O)c2cc(NC(=O)c3ccccc3)ccc2c1Cl` [Compound 9b, 7-Benzamido-4-chloro-3-(3-isothioureidopropoxy)isocoumarin hydrobromide] returned a melting point of 203 to 204 °C. In addition, the “binding to uPA compared to unsubstituted counterparts” value on Human urokinase is on record as “did not exhibit any significant improvement in binding”. Compound `O=c1oc(OCCCBr)cc2ccc([N+](=O)[O-])cc12` [Compound 10b, 3-(3-Bromopropoxy)-7-nitroisocoumarin] yielded a melting point of 112 to 113 °C. Consider `O=C(Nc1ccc2c(Cl)c(OCCBr)oc(=O)c2c1)c1ccccc1` [Compound 8a, 7-Benzamido-3-(2-bromoethoxy)-4-chloroisocoumarin], for which the melting point fell in the range of 214 to 216 °C. Moreover, the “binding to uPA compared to unsubstituted counterparts” value at Human urokinase was “markedly improved binding”.
